Test results: PMC5710999, “Statistical investigation of the full concentration range of fasted and fed simulated intestinal fluid on the equilibrium solubility of oral drugs” (European Journal of Pharmaceutical Sciences, 2018)
“Also recorded” adds a separate entry of the source.

Experiments:
[1] = Equilibrium solubility in full range (fasted to fed) design of experiment simulated intestinal media; format: physicochemical; details: for Comparison of combined fasted and fed solubility data with the full range DoE: Mann-Whitney test on equilibrium solubility distributions; for Comparison between all solubility data sets (fasted, fed, combined, full range) / Comparison of published fed DoE solubility distribution with full range DoE / Comparison of published fasted DoE solubility distribution with full range DoE: Mann-Whitney test; for Comparison between all solubility data sets (fasted, fed, combined, full range): Fig. 2b; for Variability of equilibrium solubility values: Fig. 1 and 2; for Effect of pH on equilibrium solubility: pH 5 to 7; for Comparison of published fed DoE solubility distribution with full range DoE: fed state; for Comparison of published fasted DoE solubility distribution with full range DoE: fasted state
Excerpt: A quarter of the full factorial design of experiment with 7 factors (either a component concentration or a system parameter such as pH) and 2 levels (upper and lower limits) was constructed and analysed using Minitab®17.2.1. Minitab generated 32 different experiments by various combinations of the upper and lower limits of the 7 factors based on Table 1 (no centre point and no replicate). When designing and analysing the DoE assumptions were made. […] Only main effects and 2-way interactions are considered in the analysis and 3-way interactions or more were not considered. […] The single factors and factor interactions are confounded with 3 to 6-way interactions which were not included. There are three confounded 2-way factor interactions, sodium oleate and salt with buffer and monoglyceride, sodium oleate and buffer with salt and monoglyceride, sodium oleate and monoglyceride with salt and buffer. For these interactions if the result is significant then any conclusions must be drawn with caution as it might be the result of the four factors together or only one of the 2 way interactions. […] The main effect can be positive (+) or negative (−), but when it is involved in an interaction, the conclusion will be considered with the interactions (±).
The Kolmogorov normality test was used in Minitab® to assess the distribution of each data set, based on the result that all data sets have a non-normal distribution the Mann-Whitney test was applied to evaluate differences between two data sets.
A stream of nitrogen gas was used to remove the chloroform ensuring a dry film was produced. Water was added to reform the dried film, stirred to obtain a homogenous mixture, transferred to a volumetric flask (5 ml) and made to volume with water.
Salt and buffer stock solution: Sodium chloride (4.448 g) and monosodium phosphate (NaH2PO4) (2.395 g) were weighed into a 25 ml volumetric flask, dissolved and made up to the volume with water.
Sodium oleate: Sodium oleate (1.978 g) was weighed into a 25 ml volumetric flask, dissolved in water under gentle heat and made to final volume. Solution was then kept at 50 °C to aid solubilisation.
The concentration of each stock mixture has been designed to be 15 times greater than the upper limit concentration value required for the DoE, with the exception of sodium oleate where only a 5 times concentration was possible. The stock mixtures were combined to provide the 32 measurement solutions according to the DoE model.
This protocol has been previously validated to ensure equilibrium solubility is achieved after 24 h with no methodological interference ([Khadra et al., 2015], [Zhou et al., 2017]). A weight of powdered drug (10 mg) was added to a centrifuge tube (15 ml Corning®). The required volume of each stock solution (section above) and water was added to provide a final volume of 4 ml in every tube. pH was then adjusted to 5 or 7 using 0.1 M HCL or 0.1 M KOH. Tubes were shaken for 1 h at room temperature and then pH adjusted again as before. Tubes are then placed in an orbital shaker and incubated for 24 h at 37 °C and 240 rpm. Following incubation the tubes were checked for the presence of solid drug, then centrifuged (13,000 rpm, 5 min) and the supernatant (500 μl) was sampled to determine the solubilised drug concentration by HPLC.

[2] = set-up: method as in Khadra et al., 2015; details: ref Khadra et al., 2015, cited from earlier work; for Statistical significance of DoE factor Bile Salt on equilibrium solubility, Fstd / Statistical significance of DoE factor Buffer on equilibrium solubility, Fstd / Statistical significance of DoE factor Lecithin on equilibrium solubility, Fstd / Statistical significance of DoE factor Oleate on equilibrium solubility, Fstd / Statistical significance of DoE factor Salt on equilibrium solubility, Fstd / Statistical significance of DoE factor pH on equilibrium solubility, Fstd: fasted media design of experiment; for Effect of buffer on equilibrium solubility in the fasted study: fasted DoE
[3] = cited from earlier work; for pKa: quoted without reference
[4] = set-up: method as in Zhou et al., 2017; details: fed media design of experiment; ref Zhou et al., 2017; cited from earlier work
[5] = quoted without reference; cited from earlier work
[6] = full range DoE, standardised effect
[7] = full range media design of experiment, p < 0.05

CN1CC(=O)N2[C@H](c3ccc4c(c3)OCO4)c3[nH]c4ccccc4c3C[C@@H]2C1=O [Tadalafil, tadalafil]
Comparison of combined fasted and fed solubility data with the full range DoE [1]: significantly different | Comparison between all solubility data sets (fasted, fed, combined, full range) [1]: statistically significant difference between all data sets | Variability of equilibrium solubility values ([1]; full range DoE): large variability | Effect of bile salt on equilibrium solubility [1, 6]: positively affects | Effect of sodium oleate on equilibrium solubility [1, 6]: positively affected | Effect of pH on equilibrium solubility [1, 6]: not | Statistical significance of DoE factor Bile Salt on equilibrium solubility, Full [1, 7]: S | Statistical significance of DoE factor Oleate on equilibrium solubility, Full [1, 7]: S | Statistical significance of DoE factor Bile Salt on equilibrium solubility, Fstd [2]: S | Statistical significance of DoE factor Buffer on equilibrium solubility, Fstd [2]: S | Statistical significance of DoE factor Lecithin on equilibrium solubility, Fstd [2]: S | Statistical significance of DoE factor Oleate on equilibrium solubility, Fstd [2]: S | Statistical significance of DoE factor Salt on equilibrium solubility, Fstd [2]: S | Statistical significance of DoE factor pH on equilibrium solubility, Fstd [2]: S | pKa [3]: 10 | Statistical significance of DoE factor Bile Salt on equilibrium solubility, Fed [4]: S | Statistical significance of DoE factor Oleate on equilibrium solubility, Fed [4]: S

COc1cc(C(=O)NS(=O)(=O)c2ccccc2C)ccc1Cc1cn(C)c2ccc(NC(=O)OC3CCCC3)cc12 [Zafirlukast, zafirlukast]
Comparison of combined fasted and fed solubility data with the full range DoE [1]: no significant difference | Comparison of published fed DoE solubility distribution with full range DoE [1]: statistically equivalent | Effect of bile salt on equilibrium solubility [1, 6]: positively affects | Effect of pH on equilibrium solubility [1, 6]: significant effect | Statistical significance of DoE factor Bile Salt on equilibrium solubility, Full [1, 7]: S | Statistical significance of DoE factor pH on equilibrium solubility, Full [1, 7]: S | Statistical significance of DoE factor Bile Salt on equilibrium solubility, Fstd [2]: S | Statistical significance of DoE factor Lecithin on equilibrium solubility, Fstd [2]: S | Statistical significance of DoE factor Oleate on equilibrium solubility, Fstd [2]: S | Statistical significance of DoE factor pH on equilibrium solubility, Fstd [2]: S | pKa [3]: 4.3 | Statistical significance of DoE factor Bile Salt on equilibrium solubility, Fed [4]: S | Statistical significance of DoE factor pH on equilibrium solubility, Fed [4]: S

COc1ccc2c(c1)c(CC(=O)O)c(C)n2C(=O)c1ccc(Cl)cc1 [Indomethacin, indomethacin]
Comparison of combined fasted and fed solubility data with the full range DoE [1]: no significant difference | Variability of equilibrium solubility values ([1]; full range DoE): larger variability | Statistical significance of DoE factor Bile Salt on equilibrium solubility, Full [1, 7]: S | Statistical significance of DoE factor Oleate on equilibrium solubility, Full [1, 7]: S | Statistical significance of DoE factor pH on equilibrium solubility, Full [1, 7]: S | Effect of buffer on equilibrium solubility in the fasted study [2]: negative effect | Statistical significance of DoE factor Bile Salt on equilibrium solubility, Fstd [2]: S | Statistical significance of DoE factor Buffer on equilibrium solubility, Fstd [2]: S | Statistical significance of DoE factor Oleate on equilibrium solubility, Fstd [2]: S | Statistical significance of DoE factor pH on equilibrium solubility, Fstd [2]: S | Statistical significance of DoE factor Bile Salt on equilibrium solubility, Fed [4]: S | Statistical significance of DoE factor Oleate on equilibrium solubility, Fed [4]: S | Statistical significance of DoE factor pH on equilibrium solubility, Fed [4]: S

COc1ccccc1OCCNCC(O)COc1cccc2[nH]c3ccccc3c12 (stereo not shown) [Carvedilol, carvedilol]
Comparison of combined fasted and fed solubility data with the full range DoE [1]: no significant difference | Comparison of published fasted DoE solubility distribution with full range DoE [1]: statistically equivalent | Effect of sodium oleate on equilibrium solubility [1, 6]: positively affected | Effect of pH on equilibrium solubility [1, 6]: significant effect | Statistical significance of DoE factor Oleate on equilibrium solubility, Full [1, 7]: S | Statistical significance of DoE factor pH on equilibrium solubility, Full [1, 7]: S | Statistical significance of DoE factor Bile Salt on equilibrium solubility, Fstd [2]: S | Statistical significance of DoE factor Lecithin on equilibrium solubility, Fstd [2]: S | Statistical significance of DoE factor Oleate on equilibrium solubility, Fstd [2]: S | Statistical significance of DoE factor pH on equilibrium solubility, Fstd [2]: S | Statistical significance of DoE factor Bile Salt on equilibrium solubility, Fed [4]: S | Statistical significance of DoE factor Buffer on equilibrium solubility, Fed [4]: S | Statistical significance of DoE factor Monoglyceride on equilibrium solubility, Fed [4]: S | Statistical significance of DoE factor Oleate on equilibrium solubility, Fed [4]: S | Statistical significance of DoE factor pH on equilibrium solubility, Fed [4]: S

C[C@@H](O[C@H]1OCCN(Cc2n[nH]c(=O)[nH]2)[C@H]1c1ccc(F)cc1)c1cc(C(F)(F)F)cc(C(F)(F)F)c1 [Aprepitant, aprepitant]
Comparison of combined fasted and fed solubility data with the full range DoE [1]: significantly different | Comparison between all solubility data sets (fasted, fed, combined, full range) [1]: statistically significant difference between all data sets | Variability of equilibrium solubility values ([1]; full range DoE): more consistency | Effect of sodium oleate on equilibrium solubility [1, 6]: positively affected | Effect of pH on equilibrium solubility [1, 6]: significant effect | Statistical significance of DoE factor Oleate on equilibrium solubility, Full [1, 7]: S | Statistical significance of DoE factor pH on equilibrium solubility, Full [1, 7]: S | Statistical significance of DoE factor Bile Salt on equilibrium solubility, Fstd [2]: S | Statistical significance of DoE factor Oleate on equilibrium solubility, Fstd [2]: S | Statistical significance of DoE factor pH on equilibrium solubility, Fstd [2]: S | Statistical significance of DoE factor Bile Salt on equilibrium solubility, Fed [4]: S | Statistical significance of DoE factor Buffer on equilibrium solubility, Fed [4]: S | Statistical significance of DoE factor Lecithin on equilibrium solubility, Fed [4]: S | Statistical significance of DoE factor Oleate on equilibrium solubility, Fed [4]: S | Statistical significance of DoE factor Salt on equilibrium solubility, Fed [4]: S | Statistical significance of DoE factor pH on equilibrium solubility, Fed [4]: S | log P [5]: 4.5

O=C1NC(=O)C(c2ccccc2)(c2ccccc2)N1 [Phenytoin, phenytoin]
Comparison of combined fasted and fed solubility data with the full range DoE [1]: no significant difference | Comparison of published fasted DoE solubility distribution with full range DoE [1]: statistically equivalent | Variability of equilibrium solubility values ([1]; full range DoE): more consistency; also recorded: very consistent | Statistical significance of DoE factor Oleate on equilibrium solubility, Full [1, 7]: S | Statistical significance of DoE factor pH on equilibrium solubility, Full [1, 7]: S | Effect of buffer on equilibrium solubility in the fasted study [2]: positive effect | Statistical significance of DoE factor Bile Salt on equilibrium solubility, Fstd [2]: S | Statistical significance of DoE factor Buffer on equilibrium solubility, Fstd [2]: S | Statistical significance of DoE factor Lecithin on equilibrium solubility, Fstd [2]: S | Statistical significance of DoE factor Oleate on equilibrium solubility, Fstd [2]: S | Statistical significance of DoE factor Salt on equilibrium solubility, Fstd [2]: S | Statistical significance of DoE factor pH on equilibrium solubility, Fstd [2]: S | Statistical significance of DoE factor Bile Salt on equilibrium solubility, Fed [4]: S | Statistical significance of DoE factor Monoglyceride on equilibrium solubility, Fed [4]: S | Statistical significance of DoE factor Oleate on equilibrium solubility, Fed [4]: S | Statistical significance of DoE factor pH on equilibrium solubility, Fed [4]: S

CCOC(=O)C1=C(C)NC(C)=C(C(=O)OC)C1c1cccc(Cl)c1Cl (stereo not shown) [Felodipine, felodipine]
Comparison of combined fasted and fed solubility data with the full range DoE [1]: significantly different | Comparison of published fed DoE solubility distribution with full range DoE [1]: statistically equivalent | Variability of equilibrium solubility values ([1]; full range DoE): large variability | Effect of bile salt on equilibrium solubility [1, 6]: positive effect | Effect of lecithin on equilibrium solubility [1, 6]: affected | Effect of sodium oleate on equilibrium solubility [1, 6]: positive effect | Effect of pH on equilibrium solubility [1, 6]: affected | Statistical significance of DoE factor Bile Salt on equilibrium solubility, Full [1, 7]: S | Statistical significance of DoE factor Lecithin on equilibrium solubility, Full [1, 7]: S | Statistical significance of DoE factor Oleate on equilibrium solubility, Full [1, 7]: S | Statistical significance of DoE factor pH on equilibrium solubility, Full [1, 7]: S | Statistical significance of DoE factor Bile Salt on equilibrium solubility, Fstd [2]: S | Statistical significance of DoE factor Lecithin on equilibrium solubility, Fstd [2]: S | Statistical significance of DoE factor Oleate on equilibrium solubility, Fstd [2]: S | Statistical significance of DoE factor pH on equilibrium solubility, Fstd [2]: S | Statistical significance of DoE factor Bile Salt on equilibrium solubility, Fed [4]: S | Statistical significance of DoE factor Lecithin on equilibrium solubility, Fed [4]: S | Statistical significance of DoE factor Oleate on equilibrium solubility, Fed [4]: S | Statistical significance of DoE factor pH on equilibrium solubility, Fed [4]: S | log P [5]: 3.8

CCCCCCCC/C=C\CCCCCCCC(=O)O [oleate, Sodium oleate]
pKa of acidic media factors ([3]; ref Holm et al., 2013): approximately 5

CC(C)(Sc1cc(C(C)(C)C)c(O)c(C(C)(C)C)c1)Sc1cc(C(C)(C)C)c(O)c(C(C)(C)C)c1 [Probucol, probucol]
Comparison of combined fasted and fed solubility data with the full range DoE [1]: no significant difference | Influence of any DoE factor on equilibrium solubility ([1]; full range DoE): not significantly influenced by any of the factors | log P [5]: 10.9
